Blank lines part the entries; values can stand above or below the compound they belong to.
Columns and labels:
[1] = biological target: T1, SbSOMT (stilbene O-methyltransferase) (Sorghum bicolor, UniProt A0A1B6PFV1); assay: ITC; X-ray crystal structure ([…] Å, ternary complex); format: binding
T1 construct: gene SORBI_3007G059100; residues 2–377

[2] = biological target: T2, SbCOMT (caffeic acid O-methyltransferase) (Sorghum bicolor, UniProt C5YH12); assay: ITC; format: binding
T2 construct: gene SORBI_3007G047300; residues 2–362
T2 sequence (C5YH12 2-362): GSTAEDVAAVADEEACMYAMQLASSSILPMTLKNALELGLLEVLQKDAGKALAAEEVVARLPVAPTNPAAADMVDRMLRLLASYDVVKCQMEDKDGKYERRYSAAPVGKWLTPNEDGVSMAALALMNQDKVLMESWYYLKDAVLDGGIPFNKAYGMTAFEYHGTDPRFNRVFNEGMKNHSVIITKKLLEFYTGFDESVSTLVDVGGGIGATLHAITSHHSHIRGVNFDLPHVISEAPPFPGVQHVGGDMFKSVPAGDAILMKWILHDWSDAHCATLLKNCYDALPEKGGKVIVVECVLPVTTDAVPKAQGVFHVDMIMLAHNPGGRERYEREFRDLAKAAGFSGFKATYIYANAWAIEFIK

[3] = biological target: T1, SbSOMT (stilbene O-methyltransferase); assay: ITC; X-ray crystal structure ([…] Å, ternary complex); enzyme kinetics (Km […]); format: binding
[4] = biological target: T2, SbCOMT (caffeic acid O-methyltransferase); assay: ITC; enzyme kinetics (Km […]); format: binding
[5] = biological target: T2, SbCOMT (caffeic acid O-methyltransferase); assay: ITC; […]ʹ-O-methylation enzyme assay; format: binding
[6] = biological target: Sorghum bicolor stilbene O-methyltransferase (SbSOMT) (Sorghum bicolor); assay: crystal structure; SbSOMT co-crystallised with resveratrol, pinostilbene or pterostilbene, with or without β-NAD; sitting drop vapor diffusion, 18 °C
[7] = biological target: T1, SbSOMT (stilbene O-methyltransferase); assay: ITC; format: binding
[8] = biological target: T1, SbSOMT (stilbene O-methyltransferase); assay: ITC; X-ray crystal structures (binary, and ternary with β-NAD at […] Å); methylation assay; format: binding

T1 sequence (A0A1B6PFV1 2-377): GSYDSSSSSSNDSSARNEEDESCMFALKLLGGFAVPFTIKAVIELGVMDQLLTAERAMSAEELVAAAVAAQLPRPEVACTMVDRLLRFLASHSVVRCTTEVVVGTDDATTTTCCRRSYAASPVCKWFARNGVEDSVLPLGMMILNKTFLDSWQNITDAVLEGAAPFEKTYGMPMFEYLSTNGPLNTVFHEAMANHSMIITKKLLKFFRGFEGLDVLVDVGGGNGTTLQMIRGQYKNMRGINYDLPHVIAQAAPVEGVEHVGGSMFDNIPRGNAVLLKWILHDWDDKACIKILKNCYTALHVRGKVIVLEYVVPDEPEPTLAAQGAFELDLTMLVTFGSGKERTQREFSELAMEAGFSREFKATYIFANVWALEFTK

Kd [1]: 11.2 µM
Kd ([2]; read-out: SbCOMT): 3.99 µM
Compound: COc1cc(/C=C/c2ccc(O)cc2)cc(OC)c1 [pterostilbene]

stoichiometry N [6]: 2
Compound: Sorghum bicolor stilbene O-methyltransferase (SbSOMT) (enzyme)

The remaining lines, values behind:

Compound: COc1cc(O)cc(/C=C/c2ccc(O)cc2)c1 [pinostilbene]
Kd [3]: 2.86 µM
Kd [4]: 1.79 µM

Compound: Oc1cc(O)cc(/C=C/c2ccc(O)c(O)c2)c1 [piceatannol]
Kd [5]: 1.26 µM

Compound: C[S+](CC[C@H](N)C(=O)[O-])C[C@H]1O[C@@H](n2cnc3c(N)ncnc32)[C@H](O)[C@@H]1O (stereo partly shown) [SAM]
Kd ([2]; read-out: SbCOMT): 13 µM
Kd [7]: 90 µM

Compound: Oc1ccc(/C=C/c2cc(O)cc(O)c2)cc1 [resveratrol]
Kd [2]: 1.55 µM
Kd [8]: 4.69 µM

From PMC10261104, “Regioselective stilbene O-methylations in Saccharinae grasses” (Nature Communications, 2023)
